Key:
[1] = target: Sigma non-opioid intracellular receptor 1 (Homo sapiens, UniProt Q99720); experiment: GPCRScan assay: inhibition of Sigma 1; design: radioligand conc. used [nm] 4.0 – 5.0, parental cells HEKT
[2] = target: Prostaglandin G/H synthase 2 (Homo sapiens) (UniProt P35354); experiment: COX-2 Cerep selectivity data (BI); conditions: Compound concentration 10.0 uM
[3] = target: 5-hydroxytryptamine receptor 2A (Homo sapiens, UniProt P28223); experiment: 5HT2AH_AGON Cerep selectivity data (BI); conditions: filed as agonist, Compound concentration 10.0 uM
[4] = target: 5-hydroxytryptamine receptor 2B (Homo sapiens) (UniProt P41595); experiment: 5HT2B/H AG Cerep selectivity data (BI); conditions: filed as agonist, Compound concentration 10.0 uM
[5] = target: T1, 5-hydroxytryptamine receptor 3A (Homo sapiens) (UniProt P46098); experiment: 5HT3/H Cerep selectivity data (BI); conditions: Compound concentration 10.0 uM
T1 sequence (whole entry): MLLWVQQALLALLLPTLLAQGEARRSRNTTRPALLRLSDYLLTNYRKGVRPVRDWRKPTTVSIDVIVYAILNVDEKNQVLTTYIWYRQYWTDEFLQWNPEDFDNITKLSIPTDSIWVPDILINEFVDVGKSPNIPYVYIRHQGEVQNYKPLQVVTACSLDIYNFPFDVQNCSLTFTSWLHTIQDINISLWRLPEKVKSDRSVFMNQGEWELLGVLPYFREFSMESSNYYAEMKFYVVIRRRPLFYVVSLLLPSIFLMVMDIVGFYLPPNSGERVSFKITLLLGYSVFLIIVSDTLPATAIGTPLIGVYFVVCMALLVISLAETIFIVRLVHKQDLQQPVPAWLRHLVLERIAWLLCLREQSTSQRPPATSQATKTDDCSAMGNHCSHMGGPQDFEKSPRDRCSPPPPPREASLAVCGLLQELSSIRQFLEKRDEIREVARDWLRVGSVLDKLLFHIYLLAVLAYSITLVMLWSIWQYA

[6] = target: Angiotensin-converting enzyme (Homo sapiens) (UniProt P12821); experiment: ACE(HU_AMTCH400) Cerep selectivity data (BI); conditions: Compound concentration 10.0 uM
[7] = target: T2, Alpha-2A adrenergic receptor (Homo sapiens) (UniProt P08913); experiment: ALPHA2A/HU Cerep selectivity data (BI); conditions: Compound concentration 10.0 uM
T2 sequence (whole entry): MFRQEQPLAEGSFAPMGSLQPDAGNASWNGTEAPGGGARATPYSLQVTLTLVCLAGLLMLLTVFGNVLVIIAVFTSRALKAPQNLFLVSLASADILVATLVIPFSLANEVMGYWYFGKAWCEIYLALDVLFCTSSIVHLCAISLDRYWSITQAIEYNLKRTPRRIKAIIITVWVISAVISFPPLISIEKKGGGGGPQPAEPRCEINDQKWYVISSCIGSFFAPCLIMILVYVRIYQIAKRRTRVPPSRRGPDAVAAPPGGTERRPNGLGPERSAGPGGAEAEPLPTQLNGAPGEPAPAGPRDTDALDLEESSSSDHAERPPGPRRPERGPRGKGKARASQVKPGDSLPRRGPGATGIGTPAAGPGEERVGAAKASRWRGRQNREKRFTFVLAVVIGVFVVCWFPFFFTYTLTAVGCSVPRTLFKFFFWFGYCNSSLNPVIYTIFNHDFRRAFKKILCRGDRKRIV

[8] = target: Beta-1 adrenergic receptor (Homo sapiens) (UniProt P08588); experiment: BETA1/HUM Cerep selectivity data (BI); conditions: Compound concentration 10.0 uM
[9] = target: Beta-2 adrenergic receptor (Homo sapiens) (UniProt P07550); experiment: BETA2/HUM Cerep selectivity data (BI); conditions: filed as antagonist, Compound concentration 10.0 uM
[10] = target: D(1A) dopamine receptor (Homo sapiens) (UniProt P21728); experiment: D1/H Cerep selectivity data (BI); conditions: filed as antagonist, Compound concentration 10.0 uM
[11] = target: Sodium-dependent dopamine transporter (Homo sapiens) (UniProt Q01959); experiment: DATRANS/HUM Cerep selectivity data (BI); conditions: Compound concentration 10.0 uM
[12] = target: Endothelin-1 receptor (Homo sapiens) (UniProt P25101); experiment: ETA/H Cerep selectivity data (BI); conditions: Compound concentration 10.0 uM
[13] = target: Glucocorticoid receptor (Homo sapiens) (UniProt P04150); experiment: GCORTICOID/H Cerep selectivity data (BI); conditions: Compound concentration 10.0 uM
[14] = target: Histamine H2 receptor (Homo sapiens) (UniProt P25021); experiment: H2/APT/HS Cerep selectivity data (BI); conditions: filed as antagonist, Compound concentration 10.0 uM
hERG (KCNH2) = hERG (KCNH2) (Homo sapiens, UniProt Q12809); experiment: HERG_DOFETILIDE Cerep selectivity data (BI); design: mode of action inhibitor; conditions: probe [3H] Dofetilide, compound concentration 10 uM, read-out: % Ctrl
[15] = target: Potassium voltage-gated channel subfamily V member 1 (Rattus norvegicus) (UniProt P97557); experiment: K+/VOLT/RA Cerep selectivity data (BI); conditions: Compound concentration 10.0 uM
[16] = target: Tyrosine-protein kinase Lck (Homo sapiens) (UniProt P06239); experiment: LCK_CE Cerep selectivity data (BI); conditions: Compound concentration 10.0 uM
[17] = target: Muscarinic acetylcholine receptor M1 (Homo sapiens) (UniProt P11229); experiment: M1/H Cerep selectivity data (BI); conditions: Compound concentration 10.0 uM
[18] = target: Muscarinic acetylcholine receptor M3 (Homo sapiens) (UniProt P20309); experiment: M3/H Cerep selectivity data (BI); conditions: Compound concentration 10.0 uM
[19] = target: Mu-type opioid receptor (Homo sapiens) (UniProt P35372); experiment: MU/H Cerep selectivity data (BI); conditions: Compound concentration 10.0 uM
[20] = target: Glutamate receptor ionotropic, NMDA 2A (Rattus norvegicus) (UniProt Q00959); experiment: NMDA/R Cerep selectivity data (BI); conditions: Compound concentration 10.0 uM
[21] = target: Neuronal acetylcholine receptor; alpha4/beta2 (Homo sapiens) (UniProt P17787+P43681); experiment: N_NEURO_A4B2 Cerep selectivity data (BI); format: protein-complex assay; conditions: filed as agonist, Compound concentration 10.0 uM
[22] = target: 3',5'-cyclic-AMP phosphodiesterase 4D (Homo sapiens) (UniProt Q08499); experiment: PDE4D2 Cerep selectivity data (BI); conditions: Compound concentration 10.0 uM
[23] = target: Vasopressin V1a receptor (Homo sapiens) (UniProt P37288); experiment: V1A/HUM Cerep selectivity data (BI); conditions: Compound concentration 10.0 uM
[24] = target: D(2) dopamine receptor (Homo sapiens) (UniProt P14416); conditions: Compound concentration 10.0 uM
[25] = target: Sodium-dependent dopamine transporter (Homo sapiens) (UniProt Q01959); conditions: Compound concentration 10.0 uM
[26] = target: Beta-2 adrenergic receptor (Homo sapiens) (UniProt P07550); conditions: Compound concentration 10.0 uM

Sodium-dependent dopamine transporter (Homo sapiens), sequence (Q01959 whole entry): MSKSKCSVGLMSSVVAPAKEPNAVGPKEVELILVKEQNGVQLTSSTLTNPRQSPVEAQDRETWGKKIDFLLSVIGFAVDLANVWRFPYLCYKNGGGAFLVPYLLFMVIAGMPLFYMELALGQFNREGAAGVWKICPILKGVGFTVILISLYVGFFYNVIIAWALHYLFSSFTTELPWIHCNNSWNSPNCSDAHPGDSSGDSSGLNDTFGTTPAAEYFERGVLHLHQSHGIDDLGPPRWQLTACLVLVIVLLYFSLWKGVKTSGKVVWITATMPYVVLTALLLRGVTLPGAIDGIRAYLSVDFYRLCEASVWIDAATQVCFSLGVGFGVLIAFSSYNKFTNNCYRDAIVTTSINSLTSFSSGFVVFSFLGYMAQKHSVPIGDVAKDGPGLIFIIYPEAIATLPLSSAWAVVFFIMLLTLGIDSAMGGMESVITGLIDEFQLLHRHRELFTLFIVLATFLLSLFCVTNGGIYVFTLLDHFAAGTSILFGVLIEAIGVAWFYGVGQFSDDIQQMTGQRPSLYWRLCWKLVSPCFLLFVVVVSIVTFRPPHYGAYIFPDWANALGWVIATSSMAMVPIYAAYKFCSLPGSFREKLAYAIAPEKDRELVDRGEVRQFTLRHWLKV
Beta-2 adrenergic receptor (Homo sapiens), sequence (P07550 whole entry, looked up): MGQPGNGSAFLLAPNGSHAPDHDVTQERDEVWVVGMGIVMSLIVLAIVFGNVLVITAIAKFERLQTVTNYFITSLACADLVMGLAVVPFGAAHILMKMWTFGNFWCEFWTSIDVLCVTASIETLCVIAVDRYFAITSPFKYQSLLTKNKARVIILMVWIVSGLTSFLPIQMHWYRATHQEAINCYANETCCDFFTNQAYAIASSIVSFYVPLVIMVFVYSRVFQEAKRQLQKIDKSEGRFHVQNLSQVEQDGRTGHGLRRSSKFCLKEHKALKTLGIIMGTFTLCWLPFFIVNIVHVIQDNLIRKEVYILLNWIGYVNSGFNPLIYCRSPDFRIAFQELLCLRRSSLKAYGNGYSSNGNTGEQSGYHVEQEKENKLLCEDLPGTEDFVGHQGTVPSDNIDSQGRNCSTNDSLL
3',5'-cyclic-AMP phosphodiesterase 4D (Homo sapiens), sequence (Q08499 whole entry): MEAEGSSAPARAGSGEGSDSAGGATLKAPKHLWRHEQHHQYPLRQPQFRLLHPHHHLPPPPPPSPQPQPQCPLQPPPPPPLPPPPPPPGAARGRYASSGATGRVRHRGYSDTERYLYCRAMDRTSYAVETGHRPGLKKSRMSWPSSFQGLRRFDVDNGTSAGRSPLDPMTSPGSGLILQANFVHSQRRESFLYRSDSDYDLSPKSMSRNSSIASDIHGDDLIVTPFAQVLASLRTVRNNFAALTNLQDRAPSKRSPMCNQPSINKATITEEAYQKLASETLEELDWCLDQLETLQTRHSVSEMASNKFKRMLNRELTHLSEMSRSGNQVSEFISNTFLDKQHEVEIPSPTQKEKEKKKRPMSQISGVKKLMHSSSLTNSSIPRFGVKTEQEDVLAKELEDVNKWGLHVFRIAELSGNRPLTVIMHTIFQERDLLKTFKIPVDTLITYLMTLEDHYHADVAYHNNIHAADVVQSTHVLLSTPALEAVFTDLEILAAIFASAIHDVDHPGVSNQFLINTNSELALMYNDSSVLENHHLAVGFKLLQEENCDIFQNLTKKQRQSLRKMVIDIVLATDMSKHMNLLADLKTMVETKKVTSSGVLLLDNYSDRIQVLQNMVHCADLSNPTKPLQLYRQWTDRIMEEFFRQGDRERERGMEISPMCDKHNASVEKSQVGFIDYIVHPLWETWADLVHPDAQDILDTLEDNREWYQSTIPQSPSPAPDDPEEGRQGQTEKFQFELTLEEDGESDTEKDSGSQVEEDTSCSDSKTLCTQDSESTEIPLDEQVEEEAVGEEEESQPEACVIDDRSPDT
5-hydroxytryptamine receptor 2A, sequence (P28223 whole entry): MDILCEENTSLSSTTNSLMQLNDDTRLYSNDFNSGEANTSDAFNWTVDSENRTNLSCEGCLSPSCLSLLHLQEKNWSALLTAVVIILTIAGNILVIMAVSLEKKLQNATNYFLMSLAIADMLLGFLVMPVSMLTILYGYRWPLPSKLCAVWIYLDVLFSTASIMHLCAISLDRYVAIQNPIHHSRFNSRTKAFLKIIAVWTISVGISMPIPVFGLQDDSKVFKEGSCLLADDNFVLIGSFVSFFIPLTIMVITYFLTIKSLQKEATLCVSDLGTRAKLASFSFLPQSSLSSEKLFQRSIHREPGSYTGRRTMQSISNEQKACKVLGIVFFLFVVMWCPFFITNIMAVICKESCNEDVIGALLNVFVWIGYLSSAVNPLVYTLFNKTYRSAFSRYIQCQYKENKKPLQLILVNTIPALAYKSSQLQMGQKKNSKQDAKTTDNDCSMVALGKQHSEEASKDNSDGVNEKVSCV
Glucocorticoid receptor (Homo sapiens), sequence (P04150 whole entry): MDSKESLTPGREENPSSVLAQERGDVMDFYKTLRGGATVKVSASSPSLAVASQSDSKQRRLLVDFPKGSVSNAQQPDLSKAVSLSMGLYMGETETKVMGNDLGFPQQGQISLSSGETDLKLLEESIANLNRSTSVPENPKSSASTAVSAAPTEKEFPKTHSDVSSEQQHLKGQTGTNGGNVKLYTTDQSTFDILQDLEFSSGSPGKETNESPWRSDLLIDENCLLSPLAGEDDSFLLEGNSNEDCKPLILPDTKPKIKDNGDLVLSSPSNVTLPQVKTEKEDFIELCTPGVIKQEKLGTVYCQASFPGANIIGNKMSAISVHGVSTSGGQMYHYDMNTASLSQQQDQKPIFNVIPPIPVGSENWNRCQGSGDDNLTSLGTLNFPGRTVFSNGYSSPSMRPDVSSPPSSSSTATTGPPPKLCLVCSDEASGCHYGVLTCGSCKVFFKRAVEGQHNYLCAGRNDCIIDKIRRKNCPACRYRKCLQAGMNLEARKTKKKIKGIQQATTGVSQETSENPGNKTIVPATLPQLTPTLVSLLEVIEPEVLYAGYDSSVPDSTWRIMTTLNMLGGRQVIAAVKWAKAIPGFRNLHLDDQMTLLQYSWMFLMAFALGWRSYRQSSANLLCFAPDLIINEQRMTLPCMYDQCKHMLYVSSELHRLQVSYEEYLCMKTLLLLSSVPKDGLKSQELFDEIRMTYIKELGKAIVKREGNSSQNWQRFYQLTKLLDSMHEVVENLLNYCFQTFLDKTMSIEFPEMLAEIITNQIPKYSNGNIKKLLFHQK
Prostaglandin G/H synthase 2 (Homo sapiens), sequence (P35354 whole entry): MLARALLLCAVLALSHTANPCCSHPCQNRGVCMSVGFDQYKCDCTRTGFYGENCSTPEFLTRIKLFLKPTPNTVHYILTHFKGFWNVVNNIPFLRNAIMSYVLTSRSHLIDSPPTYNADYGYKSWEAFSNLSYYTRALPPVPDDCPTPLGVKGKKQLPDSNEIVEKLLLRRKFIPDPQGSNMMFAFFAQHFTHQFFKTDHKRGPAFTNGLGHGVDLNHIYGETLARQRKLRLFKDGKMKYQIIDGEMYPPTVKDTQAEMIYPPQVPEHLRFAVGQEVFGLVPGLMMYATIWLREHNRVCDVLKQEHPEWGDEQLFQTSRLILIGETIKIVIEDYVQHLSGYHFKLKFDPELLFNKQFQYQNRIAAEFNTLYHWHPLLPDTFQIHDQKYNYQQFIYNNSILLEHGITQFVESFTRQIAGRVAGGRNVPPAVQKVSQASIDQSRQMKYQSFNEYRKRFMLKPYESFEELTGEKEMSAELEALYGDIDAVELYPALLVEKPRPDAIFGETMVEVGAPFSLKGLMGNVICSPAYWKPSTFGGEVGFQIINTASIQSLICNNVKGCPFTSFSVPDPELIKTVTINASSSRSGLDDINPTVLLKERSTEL
Sigma non-opioid intracellular receptor 1, sequence (Q99720 whole entry): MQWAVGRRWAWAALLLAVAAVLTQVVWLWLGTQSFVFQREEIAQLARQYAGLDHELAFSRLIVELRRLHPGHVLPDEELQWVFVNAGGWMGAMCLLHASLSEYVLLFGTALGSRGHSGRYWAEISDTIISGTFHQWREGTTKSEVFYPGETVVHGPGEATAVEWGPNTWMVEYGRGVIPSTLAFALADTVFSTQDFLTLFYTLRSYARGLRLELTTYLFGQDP
Vasopressin V1a receptor (Homo sapiens), sequence (P37288 whole entry, looked up): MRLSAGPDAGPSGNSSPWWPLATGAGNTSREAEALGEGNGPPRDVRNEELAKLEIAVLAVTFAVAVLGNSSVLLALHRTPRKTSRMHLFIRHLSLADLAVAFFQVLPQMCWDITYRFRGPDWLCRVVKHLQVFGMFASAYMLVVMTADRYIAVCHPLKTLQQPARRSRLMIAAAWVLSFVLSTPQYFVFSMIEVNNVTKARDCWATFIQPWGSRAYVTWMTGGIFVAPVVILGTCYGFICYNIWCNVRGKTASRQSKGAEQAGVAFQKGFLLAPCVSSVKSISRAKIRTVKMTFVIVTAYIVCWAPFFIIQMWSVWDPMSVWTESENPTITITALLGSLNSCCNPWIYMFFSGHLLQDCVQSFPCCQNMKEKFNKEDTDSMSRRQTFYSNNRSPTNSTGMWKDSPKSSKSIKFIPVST
D(2) dopamine receptor (Homo sapiens), sequence (P14416 whole entry): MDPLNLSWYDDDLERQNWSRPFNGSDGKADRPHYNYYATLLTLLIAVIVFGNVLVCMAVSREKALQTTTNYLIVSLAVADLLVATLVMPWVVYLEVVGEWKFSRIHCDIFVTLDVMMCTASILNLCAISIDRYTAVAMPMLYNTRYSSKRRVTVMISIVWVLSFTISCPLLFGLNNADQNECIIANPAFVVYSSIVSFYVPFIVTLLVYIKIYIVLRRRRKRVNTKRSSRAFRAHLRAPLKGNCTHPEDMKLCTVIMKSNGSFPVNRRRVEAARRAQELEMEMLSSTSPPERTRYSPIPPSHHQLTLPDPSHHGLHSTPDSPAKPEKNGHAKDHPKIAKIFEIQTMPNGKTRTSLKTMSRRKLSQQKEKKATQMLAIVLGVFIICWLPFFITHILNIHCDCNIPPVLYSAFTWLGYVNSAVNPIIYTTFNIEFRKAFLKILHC

## O=C(NC[C@@H]1[C@H]2CN(C(=O)OCc3cc(C(F)(F)F)cc(C(F)(F)F)c3)C[C@@H]12)c1ccc2[nH]nnc2c1 [BI 2545]
[1]
  Ki: 3.55 µM
[2]
  residual activity: 81%
[3]
  residual activity: 45%
[4]
  residual activity: 54%
[5]
  residual activity: 94%
[6]
  residual activity: 109%
[7]
  residual activity: 86%
[8]
  residual activity: 98%
[9]
  residual activity: 96%
[10]
  residual activity: 92%
[11]
  residual activity: 57%
[12]
  residual activity: 92%
[13]
  residual activity: 99%
[14]
  residual activity: 110%
hERG (KCNH2)
  activity at 10 µM: 71% (not active)
[15]
  residual activity: 103%
[16]
  residual activity: 96%
[17]
  residual activity: 97%
[18]
  residual activity: 100%
[19]
  residual activity: 67%
[20]
  residual activity: 100%
[21]
  residual activity: 111%
[22]
  residual activity: 98%
[23]
  residual activity: 80%
[24]
  inhibition: 7.71%
[25]
  inhibition: -2.65%

## Cc1nccc(COC(=O)N2C[C@@H]3[C@@H](CNC(=O)c4ccc5[nH]nnc5c4)[C@@H]3C2)n1 [BI 3017]
[26]
  inhibition: -9.93%
